In US20240376084A1, “INHIBITORS OF ALPHA-HEMOLYSIN OF STAPHYLOCOCCUS AUREUS” (Helmholtz-Zentrum Fur Infektionsforschung GmbH, priority 2021, published 2024) one finds IC50 and EC50 data, which are given here for 34 compounds.

For this experiment, the target named is hemolysin alpha from Staphylococcus aureus (Staphylococcus aureus, UniProt P09616). Briefly: cell-based.
Sequence of hemolysin alpha from Staphylococcus aureus (P09616 27-319 limits assumed): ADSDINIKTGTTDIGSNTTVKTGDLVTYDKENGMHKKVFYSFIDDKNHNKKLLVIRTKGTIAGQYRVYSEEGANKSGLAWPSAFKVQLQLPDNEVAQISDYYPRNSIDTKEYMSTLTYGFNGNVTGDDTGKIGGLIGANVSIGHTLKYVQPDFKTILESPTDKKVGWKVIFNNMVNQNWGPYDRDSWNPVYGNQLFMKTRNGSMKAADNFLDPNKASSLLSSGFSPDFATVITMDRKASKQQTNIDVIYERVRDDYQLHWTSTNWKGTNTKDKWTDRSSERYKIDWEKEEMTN

A word on the IC50: it is the point on the concentration scale where inhibition reaches its midpoint. Low readings indicate inhibition by little substance, high ones a need for much substance. In the case of `Cc1cc2[nH]c(=O)c(=O)[nH]c2cc1S(=O)(=O)Nc1cc(C)c(-c2cnn(C)c2)c(C)c1` [Compound 184, N-(3,5-dimethyl-4-(1-methyl-1H-pyrazol-4-yl)phenyl)-7-methyl-2,3-dioxo-1,2,3,4-tetrahydroquinoxaline-6-sulfonamide], the IC50 is 1000 to 3500 nM. For the compound `Cc1ccc(NS(=O)(=O)c2cc3[nH]c(=O)c(=O)[nH]c3cc2C)cc1C` [Compound 185, N-(3,4-dimethylphenyl)-7-methyl-2,3-dioxo-1,2,3,4-tetrahydroquinoxaline-6-sulfonamide], the IC50 lay within 1000 to 3500 nM.

`Cc1cc2[nH]c(=O)c(=O)[nH]c2cc1S(=O)(=O)Nc1ccc2ncccc2c1` [Compound 186, 7-methyl-2,3-dioxo-N-(quinolin-6-yl)-1,2,3,4-tetrahydroquinoxaline-6-sulfonamide] displayed an IC50 of 1000 to 3500 nM. The same measure, in the same setting: then `Cc1cc2[nH]c(=O)c(=O)[nH]c2cc1S(=O)(=O)Nc1cc(C)c(-c2cn[nH]c2)c(C)c1` [Compound 187, N-(3,5-dimethyl-4-(1H-pyrazol-4-yl)phenyl)-7-methyl-2,3-dioxo-1,2,3,4-tetrahydroquinoxaline-6-sulfonamide], with 1000 to 3500 nM. With `Cc1cc2[nH]c(=O)c(=O)[nH]c2cc1S(=O)(=O)Nc1cc(C)c(-c2ccnn2C)c(C)c1` [Compound 188, N-(3,5-dimethyl-4-(1-methyl-1H-pyrazol-5-yl)phenyl)-7-methyl-2,3-dioxo-1,2,3,4-tetrahydroquinoxaline-6-sulfonamide], the half-inhibitory concentration (IC50) fell in the range of 1000 to 3500 nM. Compound `Cc1cc2[nH]c(=O)c(=O)[nH]c2cc1S(=O)(=O)Nc1ccc(-c2cncc(Cl)c2)c(Cl)c1` [Compound 189, N-(3-chloro-4-(5-chloropyridin-3-yl)phenyl)-7-methyl-2,3-dioxo-1,2,3,4-tetrahydroquinoxaline-6-sulfonamide] gave an IC50 of 30 to 100 nM. The EC50 is the concentration giving half of the maximal effect. A higher EC50 goes with a need for much substance. Compound `O=c1[nH]c2cc(C(F)(F)F)c(S(=O)(=O)Nc3ccc(OC(F)(F)F)cc3)cc2[nH]c1=O` [Compound 190, 2,3-Dioxo-N-(4-(trifluoromethoxy)phenyl)-7-trifluoromethyl-1,2,3,4-tetrahydroquinoxaline-6-sulfonamide] came in with an EC50 of 100 to 1000 nM. As to `O=c1[nH]c2cc([N+](=O)[O-])c(S(=O)(=O)Nc3ccc(OC(F)(F)F)cc3)cc2[nH]c1=O` [Compound 191, 7-nitro-2,3-dioxo-N-(4-(trifluoromethoxy)phenyl)-1,2,3,4-tetrahydroquinoxaline-6-sulfonamide], the EC50 fell in the range of 100 to 1000 nM. Regarding `O=c1[nH]c2cc(OC(F)(F)F)c(S(=O)(=O)Nc3ccc(OC(F)(F)F)cc3)cc2[nH]c1=O` [Compound 192, 2,3-dioxo-7-(trifluoromethoxy)-N-(4-(trifluoromethoxy)phenyl)-1,2,3,4-tetrahydroquinoxaline-6-sulfonamide], the EC50 fell in the range of 100 to 1000 nM. The compound `COc1cc2[nH]c(=O)c(=O)[nH]c2cc1S(=O)(=O)Nc1ccc(OC(F)(F)F)cc1` [Compound 193, 7-methoxy-2,3-dioxo-N-(4-(trifluoromethoxy)phenyl)-1,2,3,4-tetrahydroquinoxaline-6-sulfonamide] yielded an EC50 of 100 to 1000 nM. For `CC(C)(C)c1ccc(NS(=O)(=O)c2cc3[nH]c(=O)c(=O)[nH]c3cc2Br)cc1` [Compound 195, 7-bromo-N-(4-(tert-butyl)phenyl)-2,3-dioxo-1,2,3,4-tetrahydroquinoxaline-6-sulfonamide], the EC50 fell in the range of 1000 to 3500 nM.

For the compound `Cc1cc2[nH]c(=O)c(=O)[nH]c2cc1S(=O)(=O)Nc1ccc(N2CCCC2)c(Cl)c1` [Compound 196, N-(3-chloro-4-(pyrrolidin-1-yl)phenyl)-7-methyl-2,3-dioxo-1,2,3,4-tetrahydroquinoxaline-6-sulfonamide], the concentration giving a half-maximal response (EC50) lay in the range of 30 to 100 nM.

As for `Cc1cc2[nH]c(=O)c(=O)[nH]c2cc1S(=O)(=O)Nc1ccc(N2CCOCC2)c(Cl)c1` [Compound 200, N-(3-chloro-4-morpholinophenyl)-7-methyl-2,3-dioxo-1,2,3,4-tetrahydroquinoxaline-6-sulfonamide], the EC50 lay within 1000 to 3500 nM. The compound `Cc1cc2[nH]c(=O)c(=O)[nH]c2cc1S(=O)(=O)Nc1ccc(N2CCOCC2C)c(Cl)c1` (stereo not shown) [Compound 201, N-(3-chloro-4-(3-methylmorpholino)phenyl)-7-methyl-2,3-dioxo-1,2,3,4-tetrahydroquinoxaline-6-sulfonamide] showed an EC50 of 100 to 1000 nM. The same measure, in the same setting: then `Cc1cc2[nH]c(=O)c(=O)[nH]c2cc1S(=O)(=O)Nc1ccc(N2CCOC(C)C2)c(Cl)c1` (stereo not shown) [Compound 204, N-(3-chloro-4-(2-methylmorpholino)phenyl)-7-methyl-2,3-dioxo-1,2,3,4-tetrahydroquinoxaline-6-sulfonamide], with 1000 to 3500 nM; and `Cc1cc2[nH]c(=O)c(=O)[nH]c2cc1S(=O)(=O)Nc1cnn(-c2ccccc2)c1` [Compound 207, 7-methyl-2,3-dioxo-N-(1-phenyl-1H-pyrazol-4-yl)-1,2,3,4-tetrahydroquinoxaline-6-sulfonamide], with 1000 to 3500 nM; and `Cc1cc2[nH]c(=O)c(=O)[nH]c2cc1S(=O)(=O)Nc1ccc(N2CCCOCC2)c(Cl)c1` [Compound 208, N-(3-chloro-4-(1,4-oxazepan-4-yl)phenyl)-7-methyl-2,3-dioxo-1,2,3,4-tetrahydroquinoxaline-6-sulfonamide], with 1000 to 3500 nM. As to `Cc1cc2[nH]c(=O)c(=O)[nH]c2cc1S(=O)(=O)Nc1cc(Cl)c(-c2ccc(F)cc2)cn1` [Compound 212, N-(4-chloro-5-(4-fluorophenyl)pyridin-2-yl)-7-methyl-2,3-dioxo-1,2,3,4-tetrahydroquinoxaline-6-sulfonamide], the EC50 lay in the range of 30 to 100 nM. `Cc1cc2[nH]c(=O)c(=O)[nH]c2cc1S(=O)(=O)Nc1cnc(-c2cccc(Cl)c2)c(Cl)c1` [Compound 213, N-(5-chloro-6-(3-chlorophenyl)pyridin-3-yl)-7-methyl-2,3-dioxo-1,2,3,4-tetrahydroquinoxaline-6-sulfonamide] came in with an EC50 of 100 to 1000 nM.

`Cc1cc2[nH]c(=O)c(=O)[nH]c2cc1S(=O)(=O)Nc1cnc(-c2ccc(F)c(Cl)c2)c(Cl)c1` [Compound 214, N-(5-chloro-6-(3-chloro-4-fluorophenyl)pyridin-3-yl)-7-methyl-2,3-dioxo-1,2,3,4-tetrahydroquinoxaline-6-sulfonamide]: the EC50 fell in the range of 100 to 1000 nM. `Cc1cc2[nH]c(=O)c(=O)[nH]c2cc1S(=O)(=O)Nc1cnc(-c2ccc(F)cc2)c(Cl)c1` [Compound 215, N-(5-chloro-6-(4-fluorophenyl)pyridin-3-yl)-7-methyl-2,3-dioxo-1,2,3,4-tetrahydroquinoxaline-6-sulfonamide] gave an EC50 of 30 to 100 nM. For the compound `CN(C)c1cc2[nH]c(=O)c(=O)[nH]c2cc1S(=O)(=O)Nc1ccc(OC(F)(F)F)cc1` [Compound 221, 7-(dimethylamino)-2,3-dioxo-N-(4-(trifluoromethoxy)phenyl)-1,2,3,4-tetrahydroquinoxaline-6-sulfonamide], the EC50 lay within 30 to 100 nM.

The compound `Cc1cc2[nH]c(=O)c(=O)[nH]c2cc1S(=O)(=O)Nc1ccc(OC(F)(F)F)cn1` [Compound 222, 7-methyl-2,3-dioxo-N-(5-(trifluoromethoxy)pyridin-2-yl)-1,2,3,4-tetrahydroquinoxaline-6-sulfonamide] gave an EC50 of 100 to 1000 nM. `Cc1cc2[nH]c(=O)c(=O)[nH]c2cc1S(=O)(=O)Nc1ccc(OC(F)(F)F)nc1` [Compound 223, 7-methyl-2,3-dioxo-N-(6-(trifluoromethoxy)pyridin-3-yl)-1,2,3,4-tetrahydroquinoxaline-6-sulfonamide] came in with an EC50 of 100 to 1000 nM. `Cc1cc2[nH]c(=O)c(=O)[nH]c2cc1S(=O)(=O)Nc1ccc(-c2ccccc2)nc1` [Compound 224, 7-methyl-2,3-dioxo-N-(6-phenylpyridin-3-yl)-1,2,3,4-tetrahydroquinoxaline-6-sulfonamide] gave an EC50 of 100 to 1000 nM. As to `Cc1cc2[nH]c(=O)c(=O)[nH]c2cc1S(=O)(=O)Nc1cc(Cl)c(Br)cn1` [Compound 226, N-(5-bromo-4-chloropyridin-2-yl)-7-methyl-2,3-dioxo-1,2,3,4-tetrahydroquinoxaline-6-sulfonamide], the EC50 lay within 1000 to 3500 nM. `Cc1cc2[nH]c(=O)c(=O)[nH]c2cc1S(=O)(=O)Nc1ccc2c(ccn2C)c1` [Compound 228, 7-methyl-N-(1-methyl-1H-indol-5-yl)-2,3-dioxo-1,2,3,4-tetrahydroquinoxaline-6-sulfonamide] returned an EC50 of 1000 to 3500 nM. In the case of `Cc1cc2[nH]c(=O)c(=O)[nH]c2cc1S(=O)(=O)Nc1ccc2cccnc2c1` [Compound 231, 7-methyl-2,3-dioxo-N-(quinolin-7-yl)-1,2,3,4-tetrahydroquinoxaline-6-sulfonamide], the EC50 was 100 to 1000 nM. Turning to `Cc1nc2cc(NS(=O)(=O)c3cc4[nH]c(=O)c(=O)[nH]c4cc3C)ccc2s1` [Compound 234, 7-methyl-N-(2-methylbenzo[d]thiazol-5-yl)-2,3-dioxo-1,2,3,4-tetrahydroquinoxaline-6-sulfonamide], the EC50 was 1000 to 3500 nM. `Cc1cc2[nH]c(=O)c(=O)[nH]c2cc1S(=O)(=O)Nc1cnc(Br)c(Cl)c1` [Compound 236, N-(6-bromo-5-chloropyridin-3-yl)-7-methyl-2,3-dioxo-1,2,3,4-tetrahydroquinoxaline-6-sulfonamide] yielded an EC50 of 1000 to 3500 nM. For the compound `O=c1[nH]c2cc3c(cc2[nH]c1=O)S(=O)(=O)N(c1ccc(OC(F)(F)F)cc1)CCO3` [Compound 237], the half-maximal effective concentration (EC50) fell in the range of 100 to 1000 nM.

The compound `Cc1cc2[nH]c(=O)c(=O)[nH]c2cc1S(=O)(=O)Nc1nc2ccccc2s1` [Compound 238, N-(benzo[d]thiazol-2-yl)-7-methyl-2,3-dioxo-1,2,3,4-tetrahydroquinoxaline-6-sulfonamide] returned an EC50 of 100 to 1000 nM.

In the case of `Cc1nc2ccc(NS(=O)(=O)c3cc4[nH]c(=O)c(=O)[nH]c4cc3C)cc2s1` [Compound 239, 7-methyl-N-(2-methylbenzo[d]thiazol-6-yl)-2,3-dioxo-1,2,3,4-tetrahydroquinoxaline-6-sulfonamide], the EC50 was 1000 to 3500 nM.

Take `Cc1cc2[nH]c(=O)c(=O)[nH]c2cc1S(=O)(=O)Nc1nc(C)c(-c2ccccc2)s1` [Compound 240, 7-methyl-N-(4-methyl-5-phenylthiazol-2-yl)-2,3-dioxo-1,2,3,4-tetrahydroquinoxaline-6-sulfonamide]: the EC50 was in the range of 1000 to 3500 nM.
